{"source": "patent US11969433B2", "about": "“Compositions and methods for muscle regeneration using prostaglandin E2” (The Board of Trustees of the Leland Stanford Junior …, priority 2016, dated 2024)", "key": {"gastrocnemius muscles": {"system": "gastrocnemius muscles", "test": "Specific twitch force after treadmill run to exhaustion, aged mice (Example 2)", "type": "in vivo, mouse", "settings": "aged mice 18 months, 3 nM PGE2 after each of 10 daily runs, 4 weeks after last run", "description": "The aged mice (18 months old) were subject to treadmill run to exhaustion daily for 10 days. The treadmill run was performed using the Exer3/6 (Columbus Instruments). Mice ran on the treadmill at 20 degrees downhill, starting at a speed of 10 meters/min. After 3 min, the speed was increased 1 meter/min to a final speed of 20 meters/min. Exhaustion was defined as the inability of the animal to remain on the treadmill despite electrical prodding. 2 h after each treadmill run, both gastrocnemius muscles of each mouse were injected with either PBS (control group) or 3 nM PGE2 (experimental group). The force measurement was performed 4 weeks after the last treadmill run using a […]-LR force transducer (Aurora Scientific) with a single 0.1 ms pulse at predetermined supramaximal stimulation intensity. The muscle force and synchronization pulses were recorded via a PCI-6251 acquisition card (National Instruments) and analyzed using Matlab. FIGS. 4O-4P show the specific muscle force values that were calculated by normalizing the force measurements with the muscle physiological cross-sectional area. […] Five repetitive measurements were made from each muscle. N=4 for the control group and n=5 for the PGE2 injected group. ** represents a statistical significant value of p<0.005 by 2-tailed Mann Whitney test."}, "MuSCs [1]": {"system": "MuSCs", "test": "Young MuSC numbers after acute PGE2 treatment, hydrogel culture (hemocytometer count)", "type": "cell-based, mouse", "settings": "young MuSCs, acute 1-day exposure, PGE2 10 ng/ml, one week later", "description": "(§1) Following isolation, we resuspended MuSCs in myogenic cell culture medium containing DMEM/F10 (50:50), 15% FBS, 2.5 ng ml^−1 fibroblast growth factor-2 (FGF-2 also known as bFGF) and 1% penicillin-streptomycin. We seeded MuSC suspensions at a density of 500 cells per cm^2 surface area. We maintained cell cultures at 37° C. in 5% CO2 and changed medium daily. […]\n(§2) To assay proliferation, we used three different assays (hemocytometer, VisionBlue, and EdU). […] For hemocytometer cell number count, we collected cells at indicated timepoints by incubation with 0.5% trypsin in PBS for 5 min at 37° C. and quantified them using a hemocytometer at least 3 times. Additionally, we used the VisionBlue Quick Cell Viability Fluorometric Assay Kit (BioVision, catalog #K303) as a readout for cell growth in culture. Briefly, we incubated MuSCs with 10% VisionBlue in culture medium for 3 h, and measured fluorescence intensity on a fluorescence plate reader (Infinite M1000 PRO, Tecan) at Ex=530-570 nm, Em=590-620 nm. […] We quantified EdU positive cells using the MetaMorph Image Analysis software (Molecular Devices). Data analyses were blinded, where researchers performing cell scoring were unaware of the treatment condition given to sample groups analyzed."}, "aged MuSCs": {"system": "aged MuSCs", "test": "Aged MuSC numbers after acute 24 hr treatment, hydrogel culture", "type": "cell-based, mouse", "settings": "1-day pulse; PGE2 10 ng/ml or SW033291 1 μM; assayed day 7", "description": "as §1, §2"}, "MuSCs [2]": {"system": "MuSCs", "test": "cAMP activity assay (cAMP-Glo)", "type": "cell-based, mouse", "settings": "1 hr PGE2 10 ng/ml", "description": "MuSCs were treated with DMSO (vehicle) or PGE2 (10 ng/ml) for 1 h and cyclic AMP levels measured according to the cAMP-Glo Assay protocol optimized by the manufacturer (Promega). Each sample was assayed in triplicate and in two independent experiments."}, "MuSCs [3]": {"system": "MuSCs", "test": "MuSC proliferation in charcoal stripped serum medium", "type": "cell-based, mouse", "settings": "PGE2 10 ng/ml every two days, 7 days", "description": "as §1, §2"}, "MuSCs [4]": {"system": "MuSCs", "test": "VisionBlue metabolic viability assay", "type": "cell-based, mouse", "settings": "PGE2 1-200 ng/ml", "description": "To assay proliferation, we used three different assays (hemocytometer, VisionBlue, and EdU). For each, we seeded MuSCs on flat hydrogels (hemocytometer and VisionBlue) or collagen-coated plates (EdU assay) at a density of 500 cells per cm^2 surface area. For hemocytometer cell number count, we collected cells at indicated timepoints by incubation with 0.5% trypsin in PBS for 5 min at 37° C. and quantified them using a hemocytometer at least 3 times. Additionally, we used the VisionBlue Quick Cell Viability Fluorometric Assay Kit (BioVision, catalog #K303) as a readout for cell growth in culture. Briefly, we incubated MuSCs with 10% VisionBlue in culture medium for 3 h, and measured fluorescence intensity on a fluorescence plate reader (Infinite M1000 PRO, Tecan) at Ex=530-570 nm, Em=590-620 nm. We assayed proliferation using the Click-iT EdU Alexa Fluor 555 Imaging kit (Life Technologies). Briefly, we incubated live cells with EdU (20 μM) for 1 hr prior to fixation, and stained nuclei according to the manufacturer's guidelines together with anti-MYOGENIN (Santa Cruz, catalog #sc576, 1:250) to assay differentiation. […] We quantified EdU positive cells using the MetaMorph Image Analysis software (Molecular Devices). Data analyses were blinded, where researchers performing cell scoring were unaware of the treatment condition given to sample groups analyzed."}}}
{"molecule": "CCCCC[C@H](O)/C=C/[C@H]1[C@H](O)CC(=O)[C@@H]1C/C=C\\CCCC(=O)O", "note": "[PGE2, prostaglandin E2]", "values": [{"measurement": "specific twitch force of gastrocnemius muscles", "setting": "gastrocnemius muscles", "value": "increase"}, {"measurement": "increase in the number of MuSCs relative to controls", "setting": "MuSCs [1]", "value": 6, "unit": "fold"}, {"measurement": "proliferation of aged MuSCs", "setting": "aged MuSCs", "value": "increase"}, {"measurement": "intracellular cAMP", "setting": "MuSCs [2]", "value": "elevated"}, {"measurement": "proliferation of aged MuSCs in charcoal stripped serum medium", "setting": "MuSCs [3]; aged MuSCs", "value": "rescued"}, {"measurement": "division of growth arrested MuSCs in charcoal stripped serum medium", "setting": "MuSCs [3]; young MuSCs", "value": "divided"}, {"measurement": "proliferation measured by VisionBlue", "setting": "MuSCs [4]", "value": "Increase"}]}
